Data taken from publication PMC12535377, “Synaptic and intrinsic plasticity mediated by CCK-type signaling coordinates behavioral changes during motivational state shifts” (Cell reports, 2025).
Like-named read-outs stand apart in the source and are kept apart here. Non-standard residues stand in square brackets, D forms with d. Residues, ends and D or L forms follow the SMILES beside them. sY = N[C@@H](Cc1ccc(OS(=O)(=O)O)cc1)C(=O)O

Experiments:
apCCKR2 = target: T1, apCCKR2 (Aplysia californica, UniProt A0ABM0ZX06); test: IP1 accumulation assay, apCCKR2 in CHO-K1 cells; assay type: cell-based; settings: CHO-K1 cells transfected with receptor and promiscuous Gαq
T1 sequence (A0ABM0ZX06 1-377): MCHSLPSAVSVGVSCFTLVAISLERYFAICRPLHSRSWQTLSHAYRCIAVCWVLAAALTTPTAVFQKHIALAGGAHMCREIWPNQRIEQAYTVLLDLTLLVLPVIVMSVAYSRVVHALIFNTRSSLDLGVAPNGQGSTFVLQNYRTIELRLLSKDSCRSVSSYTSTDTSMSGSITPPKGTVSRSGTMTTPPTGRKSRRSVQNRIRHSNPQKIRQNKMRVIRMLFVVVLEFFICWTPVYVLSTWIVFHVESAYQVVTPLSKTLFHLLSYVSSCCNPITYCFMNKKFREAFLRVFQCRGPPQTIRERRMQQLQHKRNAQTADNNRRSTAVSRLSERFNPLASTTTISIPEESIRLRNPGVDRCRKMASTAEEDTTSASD
Protocol: We tested receptor activation using the IP1 (inositol monophosphate) accumulation assay that measures IP1 generated in the Gαq pathway (see STAR Methods).
CHO-K1 cells were cultured in F-12K medium (Gibco, 21127–022) with 10% fetal bovine serum at 37°C in 5% CO2. Before transfection, cells were grown in 35 mm diameter tissue culture-treated dishes to 85% confluence. For transfection, 1.5 μg apCCKR plasmids or control plasmids (in pcDNA3.1(+) vector) and 1.5 μg promiscuous Gαq-family protein (in pcDNA3.1(+) vector) were mixed with 200 μL Opti-MEM (Gibco, 11058021), and 8 μL Turbofect (Thermo Fisher Scientific, R0531). This promiscuous Gαq protein contains substitutions to increase promiscuity,[148] and could bind to most GPCRs, ensuring an IP1 response when a potential ligand binds to its specific GPCR, irrespective of the GPCR’s normal association with any specific Gα proteins. The DNA mixture was incubated at room temperature for 15 min and then added dropwise to the cells in F-12K medium with 10% FBS (no antibiotics), followed by incubation at 37°C in 5% CO2 overnight. The next day, cells were detached using trypsin and reseeded in white 96-well half-area tissue culture-treated plates (Corning, 3688) at a density of 20,000 cells per well in F-12K and 10% FBS, and incubated at 37°C in 5% CO2 overnight. Activation of putative apCCK or related receptor was detected by monitoring IP1 accumulation using IPOne Detection Kit (Cisbio, 62IPAPEB), as previously described.[64],[65],[141],[149],[150]
Dose-response curves and bar graphs for experimental data were plotted using Prism software (GraphPad version 8). Data are presented as mean ± SEM of at least three independent experiments, except that LogEC50 values reported in the main text are the mean ± standard deviation (SD) from at least three independent experiments. Statistical tests were performed using Prism software. They included Student’s t-test, one-way or two-way ANOVA, as appropriate. […] Electrophysiological recordings were digitized online using AxoScope software version 10.7 (Molecular Devices, LLC, Sunnyvale, CA) and were plotted by CorelDraw version 2018 (Corel Corp., Ottawa, Canada).

Aplysia californica = test: Feeding behavior (food intake) in intact animals after peptide injection; assay type: in vivo; settings: for Behavioral effect (food intake), summary grade: Table S1 summary in words; for Food intake (seaweed consumed in a single meal): injection into hemocoel of apCCK solutions (10^-7 M or 10^-6 M) vs ASW, food-deprived animals
Text: To explore the role of apCCKs as satiety signals in mollusks, we examined their effects on food intake. […] The remaining four forms had no impact (Figure S9). Moreover, [sY6, sY8]-apCCK1 slowed food consumption (Figure 2E), which could stem, in part, from a shift from ingestive to egestive patterns as the meal progressed. [sY6, sY8]-apCCK1 also extended the duration to consume one strip of seaweed compared to controls (Figure 2F), further mimicking natural satiety.
Behavioral experiments were conducted in two batches, each using animals from separate shipments. In the first batch (Figure 2), animals were larger, with an average body weight of 93.3 ± 4.8 g, and were food-deprived for 7 days prior to testing. In the second batch (Figure S9), animals were smaller (average weight: 70.6 ± 4.0 g) and were food-deprived for 5 days to account for their reduced size. In each experiment, two weight-matched animals were housed in separate round net cages (17 cm diameter and 17 cm height) that were placed in a 500 L tank filled with circulating aerated ASW (14°C–16°C). To ensure that the animals were responsive to food, they were first pretested with a small piece of seaweed. After this pretest, in each pair, one animal was injected (into the hemocoel using a syringe needle) with apCCKs freshly dissolved in 1.5 mL ASW, whereas the other was injected with 1.5 mL of ASW. Three minutes later, the feeding session commenced. Animals were hand-fed seaweed (Shirako, Tokyo, Japan) cut in 1 × 10 cm strips, weighing ~0.1 g, increasing 10-fold when hydrated. This hand-feeding approach has been used in prior study of Aplysia feeding behavior.[146],[147] The consumed seaweed amount was converted to hydrated weight and normalized to the animal’s body weight. Each strip of seaweed was delivered to the mouth area with forceps. Feeding was terminated after 1 h or when animals stopped ingesting seaweed for 3 min.

[1] = log[EC50] with negative sign, mean ± SD, at least three independent experiments, SD, read-out: apCCKR2: log[EC50] (converted)
[2] = average of at least three independent experiments, read-out: apCCKR2: EC50

Molecule	EC50 (apCCKR2; [1])	Behavioral effect (food intake), summary grade (Aplysia californica)	Food intake (seaweed consumed in a single meal) (Aplysia californica)	EC50 (apCCKR2; [2])
CC[C@H](C)[C@H](NC(=O)CNC(=O)[C@H](Cc1ccc(OS(=O)(=O)O)cc1)NC(=O)[C@H](CC(=O)O)NC(=O)CNC(=O)[C@H](Cc1ccc(OS(=O)(=O)O)cc1)NC(=O)[C@@H](N)CO)C(=O)NCC(=O)NCC(=O)NCC(=O)N[C@@H](CCCNC(=N)N)C(=O)N[C@@H](Cc1ccccc1)C(N)=O [[sY2, sY5]-apCCK2] (H-S[sY]GD[sY]GIGGGRF-NH2)	355 nM	Weak	significant but weaker effects	
CC[C@H](C)[C@H](NC(=O)CNC(=O)[C@H](Cc1ccc(O)cc1)NC(=O)[C@H](CC(=O)O)NC(=O)CNC(=O)[C@H](Cc1ccc(OS(=O)(=O)O)cc1)NC(=O)[C@@H](N)CO)C(=O)NCC(=O)NCC(=O)NCC(=O)N[C@@H](CCCNC(=N)N)C(=O)N[C@@H](Cc1ccccc1)C(N)=O [[sY2]-apCCK2] (H-S[sY]GDYGIGGGRF-NH2)	1100 nM	No effect	did not influence feeding	1400 nM
CC[C@H](C)[C@H](NC(=O)CNC(=O)[C@H](Cc1ccc(OS(=O)(=O)O)cc1)NC(=O)[C@H](CC(=O)O)NC(=O)CNC(=O)[C@H](Cc1ccc(O)cc1)NC(=O)[C@@H](N)CO)C(=O)NCC(=O)NCC(=O)NCC(=O)N[C@@H](CCCNC(=N)N)C(=O)N[C@@H](Cc1ccccc1)C(N)=O [[sY5]-apCCK2] (H-SYGD[sY]GIGGGRF-NH2)	38.9 nM	Moderate	significant but weaker effects	49 nM
H-SYGDYGIGGGRF-NH2 [apCCK2]		No effect	did not influence feeding	> 10000 nM
